Earlier results in PMC8371712 (ACS chemical biology, 2021).

Assays:
[1] = test system: aspartate aminotransferase; details: margin of safety statement; no reference given
[2] = test system: Cerep SpectrumScreen panel of 176 pharmacological targets
[3] = test system: release of dopamine in the corpus striatum; details: no reference given
[4] = test system: various microsomal cytochrome P450 enzymes; details: margin of safety statement; no reference given
[5] = no reference given
[6] = test system: hERG potassium ion channel; details: margin of safety statement; no reference given
alanine aminotransferase = details: margin of safety statement; no reference given

N[C@H]1C=C(C(=O)O)CC1=C(F)F [OV329, (S)-3-amino-(difluoromethylenyl)cyclopent-1-ene-1-carboxylic acid]
activity against aspartate aminotransferase [1]: lack of activity | activity in Cerep SpectrumScreen panel [2]: lack of activity | release of dopamine in the corpus striatum [3]: blocks the release of dopamine | activity against microsomal cytochrome P450 enzymes [4]: lack of activity | Ames test [5]: negative | activity against hERG potassium ion channel [6]: lack of activity | activity against alanine aminotransferase (alanine aminotransferase): lack of activity
